Data: patent publication US11560339B2, “Micronutrient foliar solutions” (KOCH AGRONOMIC SERVICES, LLC, priority 2019, dated 2023)

Columns and labels:
soybean plants [1] = experiment: Fe furrow application trial, biomass measurements; assay type: in vivo; settings: in furrow at transplanting, Fe rate 0.616 mg/pot, harvested at V3-stage
Experimental: (§1) One week after application, root and shoot masses were determined by drying the above- and below-ground biomass for 12 hours at […], then weighing each plant to the third decimal in grams.
(§2) Alkaline soil having a pH of 7.9 was made by mixing air-dried Michigan topsoil (sieved) and fine sand (50:50, v/v). Next, 0.5% w/w calcium hydroxide was added to the soil-sand mixture and mixed well. Water was then added (15% v/v), and the pots were kept in that condition for a week to allow time for alkalinity fully develop. The pH was checked, and the soil was then added to 1-liter pots. There were thirty pots total, providing five replicates for each of the six treatments described below.
(§3) Soybean seeds (FS HISOY® Soybeans) were planted in trays filled with sieved topsoil. A base fertilizer comprising water solution made with urea (N), and monoammonium phosphate (P), and potassium sulfate (K) was applied to each tray before planting. The application rate was of 50-50-50 ppm NPK. Seedlings were irrigated with DI water. The trays were kept in a plant growth chamber so that each seedling received the same environmental exposure during growth.
(§4) Sixteen days after the seeds were planted as described in Part 2 of this Example, the seedlings were transplanted to the pots prepared in Part 1 of this Example. A fertilizer solution was prepared by mixing 16.67 g of Nova PeKacid® 0-60-20 (a phosphorus and potassium fertilizer, available from ICL Specialty Fertilizers), 13.33 g of SOP fertilizer, and 11.2 L of DI water. At the time of transplant, 56.5 mL of this fertilizer solution were added to each pot, and this same fertilizer solution application was repeated weekly until harvest.
(§5) A micronutrient fertilizer solution was prepared by mixing the compounds of Table 19 in 1 L of DI water. At the time of transplanting, 10 mL of this micronutrient fertilizer solution was added to each pot. This application was not repeated during the growth cycle.
(§6) Using a pipette, an iron test solution (comparative or Option 11 solution from Example 9—see Table 20) was applied about 1 cm below the soil surface, near each plant except for the negative control. This was the only iron test solution application.
(§7) All plants received about 100 mL of DI water every other day.
(§8) Shoot and root biomasses were also determined, following the procedure described in Example 7.

soybean plants [2] = experiment: Fe foliar application trial, SPAD measurements; assay type: in vivo; settings: foliar at V3 stage, Fe rate 0.616 mg/pot (Table 20), harvested after 1 week
Experimental: (§9) The plants were analyzed for leaf chlorophyll concentrations using a Soil Plant Analysis Development (“SPAD”) chlorophyll meter (SPAD 502 Plus Chlorophyll Meter, from Spectrum Technologies, Inc.), which enables an in situ, nondestructive technique. That is, not sample processing was required, and the tests were carried out on live plants. Readings were taken immediately before the first foliar treatment and again at 72 hours after the second foliar treatment, and the % SPAD increase of each sample was determined.
Thirty-six days after transplantation, the plants were harvested. SPAD measurements were taken as described Example 9. Fully grown youngest trifoliate and second youngest trifoliate were selected for these SPAD measurements. A total of nine readings were taken per trifoliate (3 per leaf).
(§10) Example 11 was exactly repeated except that instead of treating the soil with an iron solution by pipetting the solution at the time of transplantation, the plants were treated foliarly at V3 stage of growth and harvested 1 week after treatment. The SPAD, biomass, and iron uptake results can be found in Tables 24-26, respectively, while the Fe(III) reductase gene expression results can be found in FIG. 14.

soybean plants [3] = experiment: Fe furrow application trial, iron uptake by ICP; assay type: in vivo; settings: in furrow at transplanting, Fe rate 0.616 mg/pot, harvested at V3-stage
Experimental: (§11) Iron concentrations for the various plants were also determined and compared at the time of harvest, which was at least 3 days after the last treatment application. Again, each treatment had five replicates. All samples were washed in acetic acid and rinsed before being prepared for analysis by Inductively Coupled Plasma (“ICP”) Spectroscopy. Dried samples were combusted at 450° C. and extracted with concentrated hydrochloric acid, followed by analysis using ICP.
as §2, §3, §4, §5, §6, §7
(§12) Iron uptake was determined using ICP as described in Example 9.

soybean plants [4] = experiment: Fe foliar application trial, biomass measurements; assay type: in vivo; settings: foliar at V3 stage, Fe rate 0.616 mg/pot (Table 20), harvested after 1 week
Experimental: as §1, §8, §10

soybean plants [5] = experiment: Fe furrow application trial, SPAD measurements; assay type: in vivo; settings: in furrow at transplanting, Fe rate 0.616 mg/pot, harvested at V3-stage
Experimental: as §9, §2, §3, §4, §5, §6, §7
Thirty-six days after transplantation, the plants were harvested. SPAD measurements were taken as described Example 9. […] A total of nine readings were taken per trifoliate (3 per leaf).

soybean plants [6] = experiment: Fe foliar application trial, iron uptake by ICP; assay type: in vivo; settings: foliar at V3 stage, Fe rate 0.616 mg/pot (Table 20), harvested after 1 week
Experimental: as §11, §12, §10

[7] = 75% by weight solution mixed with 25% by weight of a 50% phosphonate solution, room temperature, one week; FIG. 3
Experimental: The source of iron was iron(II) sulfate heptahydrate, the base utilized was Mg(OH)2, and the citric acid:malic acid ratio was 50:50. The ratio of metal:base:total acid was 4:4:3.
A comparative solution was prepared by mixing 75% of an iron sulfate solution with 25% of the same phosphonate, also under ambient conditions. The solutions were permitted to sit for one week to look for any unwanted precipitation (i.e., iron complexed with the phosphonate).

Row | SMILES | Root average dry biomass (soybean plants [1]) [g] | Shoot average dry biomass (soybean plants [1]) [g] | Average SPAD value, second youngest trifoliate (old) (soybean plants [2]) | Average SPAD value, youngest trifoliate (young) (soybean plants [2]) | Average Fe uptake, root (soybean plants [3]) [μg/plant] | Average Fe uptake, shoot (soybean plants [3]) [μg/plant] | Root average weight/plant (dry biomass) (soybean plants [4]) [g] | Shoot average weight/plant (dry biomass) (soybean plants [4]) [g] | Average SPAD value, second youngest trifoliate (old) (soybean plants [5]) | Average SPAD value, youngest trifoliate (young) (soybean plants [5]) | Average Fe uptake, root (soybean plants [6]) [μg/plant] | Average Fe uptake, shoot (soybean plants [6]) [μg/plant] | extent of coordination complexing of iron (unwanted precipitation with phosphonate) [7]
1 | O=C([O-])CN(CCN(CC(=O)[O-])CC(=O)[O-])CC(=O)[O-].[Fe+3] [FeEDTA, iron chelated with EDTA] | 0.650 | 2.276 | 32.74 | 32.06 | 183.64 | 188.92 | 0.661 | 2.514 | 37.94 | 39.12 | 246.69 | 348.28 | –
2 | O=S(=O)([O-])[O-].[Fe+2] [FeSO4, iron sulfate] | 0.540 | 1.992 | 29.84 | 33.64 | 172.17 | 116.20 | 0.601 | 2.199 | 30.74 | 32.98 | 273.02 | 217.88 | which was not the case
